According to US11345711B2, “8,9-dihydroimidazo[1,2-a]pyrimido[5,4-e]pyrimidin-5(6H)-ones” (IMPACT THERAPEUTICS (SHANGHAI), INC, priority 2016, dated 2022):
Where two headings read alike, the source gives them in different places.

Assays:
Wee1 (h) = Wee1 (h) (Homo sapiens, UniProt P30291); test: Wee1 kinase (h) detection method, [γ-33P]-ATP filter assay; assay type: biochemical
LoVo cells = test: MTT based cell viability assay on LoVo cells; settings: Homo sapiens, LoVo, 72 h, 3 d, read-out: IC50, growth inhibition of LoVo cells
How it was run: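 Inhibition of LoVo proliferation was derived as IC50 from a sigmoidal dose-response fit of cell survival. Readout was MTT (0.5 mg/mL, 4 h) with absorbance at 552/630/690 nm, after 3-day treatment at 37 °C. Eight-point series from 10 μM to 0.01 μM, DMSO control, 1% DMSO final.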

NCI-H1299 cells = test: MTT based cell viability assay on NCI-H1299 cells; settings: Homo sapiens, read-out: IC50, growth inhibition of NCI-H1299 cells
How it was run: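 NCI-H1299 cells (1000/well, settled overnight) were exposed for 3 d at 37 °C, 5% CO2, to an eight-point series of 10 μM to 0.01 μM plus DMSO blank, as prepared in DMSO (final DMSO 1‰). MTT (0.5 mg/mL, 4 h) was read at 552/630/690 nm. IC50 came from sigmoidal dose-response fits of survival.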

Wee1 (h), sequence (P30291 whole entry): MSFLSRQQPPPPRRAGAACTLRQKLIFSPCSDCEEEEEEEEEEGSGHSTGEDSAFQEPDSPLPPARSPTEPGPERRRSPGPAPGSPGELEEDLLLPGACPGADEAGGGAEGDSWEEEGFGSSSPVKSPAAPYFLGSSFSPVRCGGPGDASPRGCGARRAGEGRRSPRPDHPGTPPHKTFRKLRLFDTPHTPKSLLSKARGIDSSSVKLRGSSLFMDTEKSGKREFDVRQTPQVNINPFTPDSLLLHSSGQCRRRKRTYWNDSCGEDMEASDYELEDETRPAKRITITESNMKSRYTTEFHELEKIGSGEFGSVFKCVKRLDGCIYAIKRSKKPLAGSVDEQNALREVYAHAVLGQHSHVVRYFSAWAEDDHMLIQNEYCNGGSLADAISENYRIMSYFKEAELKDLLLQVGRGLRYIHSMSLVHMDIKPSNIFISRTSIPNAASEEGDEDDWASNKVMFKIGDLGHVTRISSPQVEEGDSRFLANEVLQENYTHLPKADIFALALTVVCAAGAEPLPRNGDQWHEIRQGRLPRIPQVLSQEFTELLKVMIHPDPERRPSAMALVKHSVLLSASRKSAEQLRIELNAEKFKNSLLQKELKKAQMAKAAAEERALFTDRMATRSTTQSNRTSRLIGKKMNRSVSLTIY

Inh. (%) of Wee1 kinase enzyme activity (Wee1 (h); C 0.01 μm compound) | Inh. (%) of Wee1 kinase enzyme activity (Wee1 (h); C 0.1 μm compound) | Inh. (%) of Wee1 kinase enzyme activity (Wee1 (h); C 1 μm compound) | IC50 (LoVo cells) | IC50 (NCI-H1299 cells; NCI-H1299, NCI-H1299 cells) | IC50 (NCI-H1299 cells; NCI-H1299 cells) | Structure (SMILES)
18% | 74% | 95% | 0.0264 µM | 0.0929 µM | – | Cc1cc(Nc2ncc3c(n2)N2CCN=C2N(c2c(F)cccc2Cl)C3=O)cc(Cl)c1N1CCN(C)CC1 [Example 125, 6-(2-Chloro-6-fluorophenyl)-2-((3-chloro-5-methyl-4-(4-methylpiperazin-1-yl)phenyl)amino)-8,9-dihydroimidazo[1,2-a]pyrimido[5,4-e]pyrimidin-5(6H)-one]
– | – | 89% | 0.0567 µM | 0.067 µM | – | COc1cc(Nc2ncc3c(n2)N2CCN=C2N(c2c(F)cccc2Cl)C3=O)cc(Cl)c1N1CCN(C)CC1 [Example 126, 6-(2-Chloro-6-fluorophenyl)-2-((3-chloro-5-methoxy-4-(4-methylpiperazin-1-yl)phenyl)amino)-8,9-dihydroimidazo[1,2-a]pyrimido[5,4-e]pyrimidin-5(6H)-one]
– | – | 88% | 0.0423 µM | – | 0.0965 µM | COc1cc(Nc2ncc3c(n2)N2CCN=C2N(c2c(F)cccc2Cl)C3=O)cc(Br)c1N1CCN(C)CC1 [Example 127, 6-(2-Chloro-6-fluorophenyl)-2-((3-bromo-5-methoxy-4-(4-methylpiperazin-1-yl)phenyl)amino)-8,9-dihydroimidazo[1,2-a]pyrimido[5,4-e]pyrimidin-5(6H)-one]
26% | 73% | 93% | 0.0703 µM | 0.0782 µM | – | COc1cc(Nc2ncc3c(n2)N2CCN=C2N(c2c(F)cccc2Cl)C3=O)cc(C)c1N1CCN(C)CC1 [Example 129, 6-(2-Chloro-6-fluorophenyl)-2-((3-methoxy-5-methyl-4-(4-methylpiperazin-1-yl)phenyl)amino)-8,9-dihydroimidazo[1,2-a]pyrimido[5,4-e]pyrimidin-5(6H)-one]

The remaining lines, values behind:

Structure (SMILES) | Inh. (%) of Wee1 kinase enzyme activity (Wee1 (h); C 0.01 μm compound) | Inh. (%) of Wee1 kinase enzyme activity (Wee1 (h); C 0.1 μm compound) | Inh. (%) of Wee1 kinase enzyme activity (Wee1 (h); C 1 μm compound) | IC50 (LoVo cells) | IC50 (NCI-H1299 cells; NCI-H1299, NCI-H1299 cells) | IC50 (NCI-H1299 cells; NCI-H1299 cells)
Cc1cc(Nc2ncc3c(n2)N2CCN=C2N(c2c(F)cccc2Cl)C3=O)cc(C(F)(F)F)c1N1CCN(C)CC1 [Example 128, 6-(2-Chloro-6-fluorophenyl)-2-((3-methyl-4-(4-methylpiperazin-1-yl)-5-(trifluoromethyl)phenyl)amino)-8,9-dihydroimidazo[1,2-a]pyrimido[5,4-e]pyrimidin-5(6H)-one] | 8% | 61% | 89% | 0.0688 µM | 0.306 µM | –
CN1CCc2c(Cl)cc(Nc3ncc4c(n3)N3CCN=C3N(c3c(Cl)cccc3Cl)C4=O)cc2C1 [Example 130, 6-(2,6-Dichlorophenyl)-2-((5-chloro-2-methyl-1,2,3,4-tetrahydroisoquinolin-7-yl)amino)-8,9-dihydroimidazo[1,2-a]pyrimido[5,4-e]pyrimidin-5(6H)-one] | – | – | 93% | 0.624 µM | – | 0.243 µM
Cc1cc(Nc2ncc3c(n2)N2CCN=C2N(c2c(Cl)cccc2Cl)C3=O)cc2c1CCN(C)C2 [Example 131, 6-(2,6-Dichlorophenyl)-2-((2,5-dimethyl-1,2,3,4-tetrahydroisoquinolin-7-yl)amino)-8,9-dihydroimidazo[1,2-a]pyrimido[5,4-e]pyrimidin-5(6H)-one] | 27% | 89% | 100% | 0.187 µM | 0.0588 µM | –
Cc1cc(Nc2ncc3c(n2)N2CCN=C2N(c2c(Cl)cccc2Cl)C3=O)cc2c1C(C)(C)CN(C)C2 [Example 133, 6-(2,6-Dichlorophenyl)-2-((2,4,4,5-tetramethyl-1,2,3,4-tetrahydroisoquinolin-7-yl)amino)-8,9-dihydroimidazo[1,2-a]pyrimido[5,4-e]pyrimidin-5(6H)-one] | – | – | 95% | 0.165 µM | 0.046 µM | –
C[C@@H]1CN(c2c(Cl)cc(Nc3ncc4c(n3)N3CCN=C3N(c3c(Cl)cccc3Cl)C4=O)cc2Cl)C[C@H](C)N1C [Example 136, 6-(2,6-Dichlorophenyl)-2-((3,5-dichloro-4-((3S,5R)-3,4,5-trimethylpiperazin-1-yl)phenyl)amino)-8,9-dihydroimidazo[1,2-a]pyrimido[5,4-e]pyrimidin-5(6H)-one] | 36% | 75% | 94% | 0.214 µM | 0.31 µM | –
Cc1cc(Nc2ncc3c(n2)N2CCN=C2N(c2c(Cl)cccc2Cl)C3=O)cc(Cl)c1N1C[C@@H](C)N(C)[C@@H](C)C1 [Example 137, 6-(2,6-Dichlorophenyl)-2-((3-chloro-5-methyl-4-((3S,5R)-3,4,5-trimethylpiperazin-1-yl)phenyl)amino)-8,9-dihydroimidazo[1,2-a]pyrimido[5,4-e]pyrimidin-5(6H)-one] | 20% | 78% | 96% | 0.114 µM | 0.122 µM | –
CN(C)C1CCN(c2ccc(Nc3ncc4c(n3)N3CCN=C3N(c3c(Cl)cccc3Cl)C4=O)cc2)CC1 [Example 138, 6-(2,6-Dichlorophenyl)-2-((4-(4-(dimethylamino)piperidin-1-yl)phenyl)amino)-8,9-dihydroimidazo[1,2-a]pyrimido[5,4-e]pyrimidin-5(6H)-one] | 22% | 77% | 96% | 0.199 µM | 0.17 µM | –
CN(C)C1CCN(c2ccc(Nc3ncc4c(n3)N3CCN=C3N(c3c(Cl)cccc3Cl)C4=O)cc2Cl)CC1 [Example 139, 6-(2,6-Dichlorophenyl)-2-((3-chloro-4-(4-(dimethylamino)piperidin-1-yl)phenyl)amino)-8,9-dihydroimidazo[1,2-a]pyrimido[5,4-e]pyrimidin-5(6H)-one] | 31% | 81% | 95% | 0.0456 µM | 0.0859 µM | –
CN(C)C1CCN(c2ccc(Nc3ncc4c(n3)N3CCN=C3N(c3c(Cl)cccc3Cl)C4=O)cc2Br)CC1 [Example 140, 6-(2,6-Dichlorophenyl)-2-((3-bromo-4-(4-(dimethylamino)piperidin-1-yl)phenyl)amino)-8,9-dihydroimidazo[1,2-a]pyrimido[5,4-e]pyrimidin-5(6H)-one] | 32% | 82% | 98% | 0.0582 µM | 0.0929 µM | –
